Test results taken from patent publication US20100048523A1, “Compounds, Compositions and Methods for Treating Hormone-Dependent Maladies” (priority 2006, published 2010).

Legend:
[1] = test system: p21−/− MCF-10A breast cancer cell lines; experiment: High-throughput cell-based growth inhibition screen, p21 knock-out (Erik) vs parental (Erin) cell lines; design: species or system human
[2] = test system: MCF-10A p21 knock out cell lines (ERα positive); experiment: Growth assay (crystal violet) of ERα positive MCF-10A p21−/− cells; type: cell-based, human; conditions: for growth (cell proliferation) in response to the substance: ERα positive MCF-10A p21−/− (p21 null)
Procedure: (§1) ERα positive MCF-10A (ERIN#9), pIRESpuro2 transfection control (−) control, and ERα positive MCF-10A p21−/− (1.6#4) cell lines were seeded in assay media (no EGF) and exposed to estrogen (E2), vehicle only, estrogen and Tamoxifen (E2+Tam), estrogen and Faslodex (E2+ICI), Tamoxifen alone (Tam) and Faslodex alone (ICI). Cells were grown for 1 week and stained with crystal violet. Results are representative of multiple clones including heterozygous controls, and assays were repeated three times for each clone.
(§2) The creation of a non-tumorigenic human breast epithelial cell line (MCF-10A) in which the p21 gene was deleted through targeted homologous recombination has been previously described. Because p21 has been implicated in Tamoxifen resistance, and the response of Tamoxifen in both parental MCF-10A cells and their p21−/− derivatives was assessed. MCF-10A cells are ERα negative and unresponsive to estrogen stimulation. In order to develop a model system to analyze the effects of estrogen and anti-estrogen signaling, MCF-10A cells and their p21−/− derivatives were stably transfected with a cDNA encoding for wild type ERα.
(§3) Unlike previous attempts to stably integrate ERα into the MCF-10A cell line, a cloning vector containing an internal ribosome entry site (IRES) was used to ensure high levels of wild type ERα expression. The full coding sequence of wild type ERα was PCR cloned into pIRESpuro2 (Clontech) and the absence of any coding mutations was verified by direct sequencing.
(§4) Cell lines were generated and grown with charcoal stripped dextran treated serum (Hyclone) and phenol red free medium to avoid any possible growth effects of estrogen in the medium.

[3] = test system: MCF-10A cells stably overexpressing ERα; experiment: Growth assay (crystal violet) of ERα positive MCF-10A cells; type: cell-based, human; conditions: for effect on estrogen-induced proliferation: ERα positive MCF-10A (p21+/+), with estrogen
Procedure: as §1, §2, §3, §4

[4] = test system: metastatic breast cancer (skin); experiment: Case report: metastatic breast cancer (skin) nodule under Tamoxifen; type: in vivo, human
[5] = test system: ER/PR positive breast cancers; conditions: adjuvant setting; cited from earlier work

Compound	targeting of tamoxifen resistant ER positive cells [1]	effect on estrogen-induced proliferation [3]	growth (cell proliferation) in response to the substance [2]	other results
CC12CCC3c4ccc(O)cc4CCC3C1CCC21OCCO1 (stereo not shown) [Compound 233-D4]	target tamoxifen resistant ER positive cells	–	–	–
CC(=O)Oc1ccc2c(c1)CCC1C2CC[C@@]2(C)C1CCC21OCCO1 (stereo partly shown) [Compound 233-E09]	target tamoxifen resistant ER positive cells	–	–	–
C[C@]12CC[C@@H]3c4ccc(O)cc4C[C@@H](CCCCCCCCC[S+]([O-])CCCC(F)(F)C(F)(F)F)[C@H]3[C@@H]1CC[C@@H]2O (stereo partly shown) [Faslodex, fulvestrant]	–	inhibited	–	effect on proliferative effects of estrogen ([2]; p21−/− cell lines, with estrogen): could still inhibit
O=C(c1ccc(OCCN2CCCCC2)cc1)c1c(-c2ccc(O)cc2)sc2cc(O)ccc12 [Raloxifene]	–	behaved identically to Tamoxifen	not as pronounced as Tamoxifen's	–
CC/C(=C(\c1ccccc1)c1ccc(OCCN(C)C)cc1)c1ccccc1 [Tamoxifen]	–	inhibited	grew in response	growth inhibitory effect on p21 knock out cells ([2]; ERα positive MCF-10A p21−/−): resistant to the growth inhibitory effects; behaviour of recurrent skin nodule during Tamoxifen ([4]; 2003, in the presence of Tamoxifen): growing in the presence of Tamoxifen; behaviour of skin nodule after Tamoxifen cessation ([4]; one month after Tamoxifen cessation): went away after cessation; reduction of the risk of recurrence [5]: ≤ 47%
estrogen	–	–	–	proliferation in response to the substance ([3]; ERα positive MCF-10A, assay media without EGF, 1 week): proliferated in response to estrogen
